The source made the active and inactive calls. No cut-off for these calls is given here.
Tests used:
[1] = Induction of free radicals production in carbonate buffer at pH 9 by electron spin resonance analysis; type: physicochemical
U-937 [2] = test: Induction of apoptosis in human U937 cells assessed as reduction of normal cells at 250 uM after 24 hrs by Annexin V-FITC double staining; type: functional, cell-based
U-937 [3] = test: Pro-oxidant activity in human U937 cells assessed as DCF-DA oxidation at 10 to 250 uM by fluorescence assay; type: functional, cell-based; settings: TDE = time-dependent effect
U-937 [4] = test: Induction of cell differentiation in human U937 cells assessed as increase of rhC5a-induced response at 50 uM after 72 hrs by FACS flow cytometer analysis; type: functional, cell-based
U-937 [5] = test: Induction of apoptosis in human U937 cells assessed as activation of caspase-3 at 250 uM after 24 hrs by colorimetric assay in presence of caspase-8 inhibitor Z-LETD-FMK; type: functional, cell-based
U-937 [6] = test: Induction of cell differentiation in human U937 cells assessed as increase of CD88 expression at 50 uM after 72 hrs by FACS flow cytometer analysis; type: functional, cell-based
U-937 [7] = test: Cytotoxicity against human U937 cells after 48 hrs by trypan blue assay; type: functional; settings: U-937, 48 h
[8] = Pro-oxidant activity in 0.1 M potassium phosphate buffer at pH 7.4 assessed as increase of oxidation potential by cyclic voltammetry analysis; type: physicochemical
U-937 [9] = test: Pro-oxidant activity in human U937 cells assessed as DCF-DA oxidation up to 6 hrs by fluorescence assay; type: functional, cell-based
Jurkat [10] = test: Induction of apoptosis in human Jurkat cells assessed as activation of caspase-3-mediated PARP cleavage at 250 uM after 24 hrs by colorimetric assay; type: functional, cell-based
PBMC = test: Cytotoxicity against human PBMC at 250 uM after 48 hrs by trypan blue assay; type: cell-based
U-937 [11] = test: Inhibition of clonogenic activity in human U937 cells assessed as reduction of colony formation in soft agar at 100 to 250 uM after 24 hrs using crystal violet staining; type: functional, cell-based
U-937 [12] = test: Cell cycle arrest in human U937 cells assessed as accumulation at sub-G0/G1 phase at 250 uM after 24 hrs using propidium iodide staining by FACS analysis; type: functional, cell-based
U-937 [13] = test: Antiproliferative activity against human U937 cells assessed as incorporation of [3H]-methyl-thymidine after 12 hrs by scintillation counting; type: functional, cell-based
[14] = Induction of free radicals production in RPMI 1640 medium at pH 7.4 by electron spin resonance analysis; type: physicochemical
U-937 [15] = test: Induction of apoptosis in human U937 cells assessed as increase of caspase-9 cleavage at 250 uM by Western blot analysis; type: functional, cell-based; settings: TDE = time-dependent effect
U-937 [16] = test: Induction of apoptosis in human U937 cells assessed as phosphatidylserine expression in plasma membrane at 250 uM after 24 hrs by Annexin V-FITC double staining; type: functional, cell-based
U-937 [17] = test: Induction of apoptosis in human U937 cells assessed as activation of caspase-3 at 250 uM after 24 hrs by colorimetric assay; type: functional, cell-based
U-937 [18] = test: Induction of DNA damage in human U937 cells; type: functional, cell-based
U-937 [19] = test: Induction of cell differentiation in human U937 cells assessed as increase of CD11b and CD14 expression at 50 uM after 72 hrs by FACS flow cytometer analysis; type: functional, cell-based
U-937 [20] = test: Induction of apoptosis in human U937 cells assessed as activation of caspase-3 at 250 uM after 24 hrs by colorimetric assay in presence of caspase-9 inhibitor Z-LEHD-FMK; type: functional, cell-based
Jurkat [21] = test: Cytotoxicity against human Jurkat at 250 uM after 48 hrs by trypan blue assay; type: functional, cell-based
U-937 [22] = test: Induction of apoptosis in human U937 cells assessed as active 11 kDa fragment of caspase-3 at 250 uM after 24 hrs by Western blot analysis; type: functional, cell-based
U-937 [23] = test: Induction of apoptosis in human U937 cells assessed as increase of caspase-9 cleavage at 250 uM after 12 hrs by Western blot analysis; type: functional, cell-based
U-937 [24] = test: Induction of apoptosis in human U937 cells assessed as PARP cleavage at 250 uM after 24 hrs by Western blot analysis; type: functional, cell-based
U-937 [25] = test: Induction of apoptosis in human U937 cells assessed as increase of caspase-8 cleavage at 250 uM after 12 hrs by Western blot analysis; type: functional, cell-based

## Cc1cc(=O)oc2c(O)c(O)ccc12 [4-METHYLDAPHNETIN]
[1]
  Activity: Active
U-937 [2]
  Activity: Active
U-937 [3]
  Activity: tde
U-937 [4]
  Activity: Active
U-937 [5]
  Activity: Active
U-937 [6]
  Activity: Active
U-937 [7]
  CC50: 120 µM
[8]
  Activity: Active
U-937 [9]
  Activity: Dose-dependent effect
Jurkat [10]
  Activity: Active
PBMC
  Activity: Toxic
U-937 [11]
  colony formation inhibition (active/not active): Active
U-937 [12]
  Activity: Active
U-937 [13]
  IC50: 83.2 µM
[14]
  Activity: Active
U-937 [15]
  Activity: tde
U-937 [16]
  Activity: Active
U-937 [17]
  Activity: Active
U-937 [18]
  Activity: inactive
U-937 [19]
  Activity: Active
U-937 [20]
  Activity: inactive
Jurkat [21]
  Activity: Active
U-937 [22]
  Activity: Active
U-937 [23]
  Activity: Active
U-937 [24]
  Activity: Active
U-937 [25]
  Activity: inactive

From ChEMBL document CHEMBL2202983, “Structure-anti-leukemic activity relationship study of ortho-dihydroxycoumarins in U-937 cells: key role of the δ-lactone ring in determining differentiation-inducing potency and selective pro-apoptotic action” (Bioorg Med Chem, 2012)
